Converted amounts (≈) assume the structure as drawn.
Tested on: red blood cells (RBC)
Experiment: CAP-e assay (RBC treated with test sample, washed, lysed; CM-H2DCFDA fluorescence after oxidative challenge)
Assay type: cell-based, human
Conditions: for inhibition of oxidative damage: hydroxyl free radical generator H2O2 compared with peroxyl free radical generator AAPH: dose response curves, FIG. 2 and FIG. 3
Experimental: Whole blood was collected from healthy volunteers. A double density gradient was prepared, where 3 ml of HISTOPAQUE® 1099 was overlaid with 3 ml of HISTOPAQUE® 1077. 5-6 ml of whole anticoagulated blood was layered on top of the double gradient and centrifuged for 25 minutes at 2400 rpm. The plasma, peripheral blood mononuclear cells, polymorphonuclear cells, and HISTOPAQUE® were removed using a transfer pipette. The remaining packed red blood cell fraction was washed three times in 10-14 ml PBS by centrifugation at 2400 rpm for 10 minutes. After the third wash the supernatant was removed, and the packed RBC were aliquoted for storage by pipetting 200 μl packed RBC into 10 ml PBS. The RBC aliquots were stored at 4-8° C. until use. The cells were used the same day or after up to 120 days of storage. For most routine testing, the RBC were typically prepared 2-4 weeks before use.
The antioxidant standard gallic acid (GA) was prepared by dissolving 85 mg of GA in 0.5 ml of 99.95% methanol. 0.2 ml of the dissolved GA was immediately diluted in 49.8 ml of PBS. Serial five-fold dilutions of the GA solution were prepared in PBS.
The serial dilutions of the extract and the GA standard were aliquoted in duplicate in a deep-well microplate. 100 μl of the RBC suspension was added to each well. The plate was incubated for 20 minutes at room temperature in the dark. Unabsorbed antioxidants were removed by washing the RBC three times in PBS by centrifugation for 2.5 minutes at 2400 rpm. The RBC pellets were lysed by incubation in 0.08 ml distilled water for 5 minutes at room temperature.
The fluorescent probe was prepared by reconstituting 50 μg CM-H2DCFDA in 0.2 ml anhydrous dimethyl sulfoxide, which was then added to 7.5 ml PS. After lysis of RBC was complete 70 μl of the lysed RBC were transferred to a black microplate and 50 μl of CM-H2DCFDA was added to each well (16.25 μM CM-H2DCFDA). The microplate was incubated for 20 minutes at room temperature or 37° C. in the dark. Then 50 μl H2O2 (0.0004% final concentration) or 50 μl AAPH (1 mg/ml final concentration) was added to each well. Wells exposed to H2O2 were incubated for 5 minutes at room temperature in the dark. Wells exposed to AAPH were incubated for one hour at room temperature or 37° C. in the dark. Fluorescence intensity was measured in a Tecan Spectrafluor fluorescence plate reader with excitation at 485 nm and emission at 535 nm.
Negative controls were RBC which were not treated with a test sample or standard and were not exposed to an oxidative challenge. Positive controls were RBC which were not treated with a test sample or standard, but were exposed to an oxidative challenge. The percent inhibition of oxidative damage was calculated as [(fluorescence intensity of RBC treated with free radical generator−fluorescence intensity of RBC treated with test sample and free radical generator)/(fluorescence intensity of RBC treated with free radical generator−fluorescence intensity of untreated RBC)]×100.
The CAP-e value of a given test product is based on the comparison of the dose-response of inhibition of oxidative damage between the standard gallic acid (GA) and the test sample. For each test sample or compound, the IC50 for inhibition of oxidative damage is calculated. […] The CAP-e units of GA was set as 1,000 Gallic Acid Equivalents (GAE). […] The CAP-e value was expressed as CAP-e units/g of sample.

| SMILES | IC50 (Homo sapiens, Erythrocyte, determined from more than 60 independent experiments, read-out: IC50 for inhibition of oxidative damage) | amount needed for the same level of protection, RBC from older person versus younger person (RBC from a person over 85 years versus under 50 years of age, H2O2, FIG. 11) | inhibition of oxidative damage: hydroxyl free radical generator H2O2 compared with peroxyl free radical generator AAPH | protection of RBC from damage from both free radical generators (H2O2 and AAPH, at higher concentrations) |
| --- | --- | --- | --- | --- |
| O=C(O)c1cc(O)c(O)c(O)c1 [GA, gallic acid] | 32 µg/mL (≈ 188 µM) | More GA was required | equally effective | – |
| Cc1c(C)c2c(c(C)c1O)CCC(C)(C(=O)O)O2 (centres unmarked) [TROLOX®, 6-hydroxy-2,5,7,8-tetramethylchroman-2-carboxylic acid] | – | – | more effective against hydroxyl free radicals at lower concentrations | protected RBC from damage |
